Data on one compound can be found in the NIST ThermoML archive (doi:10.1021/je300953u).

A short description of this data set: mn = molality of the nth substance listed, in mol/kg. Conditions: 101 kPa, Liquid, Vibrating tube method.

± gives the expanded uncertainty stated by the source.

Regarding `CCn1cc[n+](C)c1.[Br-]` [1-ethyl-3-methylimidazolium bromide] + O, the mass density (298.15 K, m1 = 0.025) is reported as 998.38 ± 0.29 kg/m3; the mass density (298.15 K, m1 = 0.055) amounted to 999.96 ± 0.29 kg/m3; the mass density (308.15 K, m1 = 0.025) came out at 995.33 ± 0.29 kg/m3; the mass density (308.15 K, m1 = 0.055) is listed as 996.89 ± 0.29 kg/m3.

One may read the mass density as the mass of a sample divided by its volume.
